Earlier results in US10265547B2, “Internal ultrasound gel” (SmileSonica Inc., priority 2012, dated 2019).

What was measured:
[1] = test system: Escherichia coli; details: Makinen and Soderling 1981
[2] = test system: clostridium butyricum; details: Makinen and Soderling 1981
[3] = test system: lactobacillus bulgaricus; details: Makinen and Soderling 1981
[4] = test system: saccharomyces cerevisiae; details: Makinen and Soderling 1981
[5] = test system: salmonella typhi; details: Makinen and Soderling 1981
[6] = test system: Streptococcus mutans; details: xylitol in the range of 0.1% to 5%
[7] = test system: Streptococcus pneumonia; details: nasopharyngeal flora, Kontiokari et al. 1995
[8] = average adult of 70 kg

SMILES	growth inhibition [1]	growth inhibition [2]	growth inhibition [3]	growth inhibition [4]	growth inhibition [5]	reduction of oral bacterial flora [6]	growth inhibition [7]	acceptable daily ingestion intake [8] [mg daily]
OC[C@@H](O)[C@H](O)[C@@H](O)CO [xylitol]	inhibiting the growth	inhibiting the growth	inhibiting the growth	inhibiting the growth	inhibiting the growth	reduce oral bacterial flora	inhibiting the growth	
C/C=C/C=C/C(=O)[O-].[K+] [potassium sorbate]								875
